Laboratory results: patent publication US20240327381A1, “Compounds and Compositions for Selective Degradation of Engineered Proteins” (Celgene Corporation, priority 2023, published 2024)
Read-outs that look alike come from different tables or passages of the source.

How the values were obtained:
[1] = target: T1, Helios (Homo sapiens, UniProt Q9UKS7); assay: Helios degradation in Jurkat/Helios/HiBit cells (Nano-Glo luminescence); assay type: cell-based; conditions: 18 hr, read-out: Helios Jurkat Hibit IC50
T1 construct: endogenous in cells; host or cells: Jurkat cells, CRISPR/Cas9 knock-in of HiBit at the IKZF2 locus
T1 sequence (Q9UKS7 whole entry): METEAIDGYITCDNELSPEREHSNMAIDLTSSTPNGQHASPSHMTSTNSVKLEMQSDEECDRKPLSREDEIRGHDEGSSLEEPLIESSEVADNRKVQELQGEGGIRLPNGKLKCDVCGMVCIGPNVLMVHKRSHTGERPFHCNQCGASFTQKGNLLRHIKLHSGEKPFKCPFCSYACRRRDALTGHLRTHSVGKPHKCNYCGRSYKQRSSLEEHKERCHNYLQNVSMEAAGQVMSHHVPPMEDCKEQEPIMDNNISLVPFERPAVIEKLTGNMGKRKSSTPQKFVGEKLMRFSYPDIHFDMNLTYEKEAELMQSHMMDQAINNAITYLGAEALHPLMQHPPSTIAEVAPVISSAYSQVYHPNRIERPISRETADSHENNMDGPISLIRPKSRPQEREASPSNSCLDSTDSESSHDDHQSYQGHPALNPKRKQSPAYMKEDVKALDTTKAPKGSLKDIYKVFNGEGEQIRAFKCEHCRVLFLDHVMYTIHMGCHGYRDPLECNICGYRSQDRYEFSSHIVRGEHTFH
T1 sequence (Q96SW2 whole entry, further chain): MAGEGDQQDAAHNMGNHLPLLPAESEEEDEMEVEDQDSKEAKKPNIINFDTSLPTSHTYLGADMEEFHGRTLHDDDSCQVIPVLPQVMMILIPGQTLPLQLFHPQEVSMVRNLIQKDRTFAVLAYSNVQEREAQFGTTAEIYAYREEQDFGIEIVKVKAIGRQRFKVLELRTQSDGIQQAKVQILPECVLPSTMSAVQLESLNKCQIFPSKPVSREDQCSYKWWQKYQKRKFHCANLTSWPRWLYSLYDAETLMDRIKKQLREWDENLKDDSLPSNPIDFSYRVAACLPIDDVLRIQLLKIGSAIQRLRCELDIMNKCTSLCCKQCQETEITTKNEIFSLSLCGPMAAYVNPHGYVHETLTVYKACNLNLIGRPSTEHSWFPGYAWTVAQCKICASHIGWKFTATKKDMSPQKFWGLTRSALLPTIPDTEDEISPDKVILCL
T1 sequence (Q16531 whole entry partner): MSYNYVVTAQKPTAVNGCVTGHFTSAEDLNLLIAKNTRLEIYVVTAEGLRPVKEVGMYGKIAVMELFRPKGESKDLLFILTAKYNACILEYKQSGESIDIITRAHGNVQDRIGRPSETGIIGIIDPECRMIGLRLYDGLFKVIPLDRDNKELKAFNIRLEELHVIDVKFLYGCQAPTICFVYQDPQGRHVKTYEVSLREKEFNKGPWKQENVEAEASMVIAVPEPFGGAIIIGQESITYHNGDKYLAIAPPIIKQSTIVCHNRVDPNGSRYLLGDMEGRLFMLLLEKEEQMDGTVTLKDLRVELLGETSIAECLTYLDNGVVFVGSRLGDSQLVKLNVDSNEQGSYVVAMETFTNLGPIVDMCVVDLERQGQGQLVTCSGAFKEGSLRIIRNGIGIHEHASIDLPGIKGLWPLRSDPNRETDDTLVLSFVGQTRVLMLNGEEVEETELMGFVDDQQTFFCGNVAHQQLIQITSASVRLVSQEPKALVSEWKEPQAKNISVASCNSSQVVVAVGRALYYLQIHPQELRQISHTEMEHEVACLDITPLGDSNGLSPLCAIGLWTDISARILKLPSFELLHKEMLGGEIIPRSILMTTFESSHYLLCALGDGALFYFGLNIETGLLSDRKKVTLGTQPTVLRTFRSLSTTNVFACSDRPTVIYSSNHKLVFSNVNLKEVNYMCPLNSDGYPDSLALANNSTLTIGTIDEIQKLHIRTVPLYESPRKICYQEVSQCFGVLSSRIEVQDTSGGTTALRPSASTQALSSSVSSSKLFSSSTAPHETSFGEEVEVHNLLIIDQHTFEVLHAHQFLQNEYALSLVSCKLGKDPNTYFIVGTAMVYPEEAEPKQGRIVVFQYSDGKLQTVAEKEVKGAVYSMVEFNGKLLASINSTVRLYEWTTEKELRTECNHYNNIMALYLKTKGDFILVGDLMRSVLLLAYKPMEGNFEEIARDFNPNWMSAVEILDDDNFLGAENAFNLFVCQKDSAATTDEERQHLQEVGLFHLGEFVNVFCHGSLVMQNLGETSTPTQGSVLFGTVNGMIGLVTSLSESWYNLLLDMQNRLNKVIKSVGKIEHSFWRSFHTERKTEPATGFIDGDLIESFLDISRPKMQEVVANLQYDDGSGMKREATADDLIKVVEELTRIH
How it was run: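 Jurkat cells carrying CRISPR-knocked-in C-terminal HiBit-tagged endogenous IKZF2 were treated with compound in DMEM/10% FCS (10,000 cells/well) for 18 h at 37 °C. HiBit signal was read by Nano-Glo luminescence after 30 min at RT. EC50 for degradation came from a four-parameter logistic fit, with Ymax as % protein degraded.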

[2] = target: T2, IKZF1 ZNF2_ZNF3 Q1F degron-tagged CD19 CAR (Homo sapiens, UniProt Q13422, Q146F); assay: Degradation of Q1F degron-tagged CD19 CAR in Jurkat cells (flow cytometry of CAR levels); assay type: cell-based; conditions: for DC50: Jurkat cells expressing CD19 CAR tagged with IKZF1 ZNF2_ZNF3 Q1F, 18 hours at 37° C., CAR levels normalized to untreated cells, read-out: Q1F Jurkat IC50; for Dmax: read-out: Q1F Jurkat-YMax
T2 construct: ZNF2_ZNF3 Q1F degron (GERPFFCNQCGASFTQKGNLLRHIKLHSGEKPFKCHLCNYACRRRDALTGHLRTHS); fused on or other part: anti-CD19 scFv, CD28 transmembrane domain, 4-1BB costimulatory domain, CD3 zeta signaling domain (the CAR that carries the degron), and Nluc
T2 sequence (Q13422 whole entry Q146F, the tested form may be a part): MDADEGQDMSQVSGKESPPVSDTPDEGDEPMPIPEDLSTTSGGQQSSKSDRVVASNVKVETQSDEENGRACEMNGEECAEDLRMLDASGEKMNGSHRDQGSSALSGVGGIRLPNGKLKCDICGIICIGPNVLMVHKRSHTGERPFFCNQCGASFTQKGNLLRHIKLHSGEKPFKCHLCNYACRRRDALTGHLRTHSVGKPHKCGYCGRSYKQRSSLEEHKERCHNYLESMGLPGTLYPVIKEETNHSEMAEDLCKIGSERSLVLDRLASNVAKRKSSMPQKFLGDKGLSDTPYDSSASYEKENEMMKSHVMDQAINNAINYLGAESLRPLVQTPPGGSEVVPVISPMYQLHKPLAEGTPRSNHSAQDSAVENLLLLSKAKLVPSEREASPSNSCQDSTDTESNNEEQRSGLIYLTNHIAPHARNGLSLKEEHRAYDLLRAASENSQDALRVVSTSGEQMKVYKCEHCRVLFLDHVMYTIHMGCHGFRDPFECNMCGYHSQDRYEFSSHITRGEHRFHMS
How it was run: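 Jurkat cells were lentivirally transduced with an anti-CD19 scFv/CD28 TM/4-1BB/CD3ζ CAR tagged with an IKZF1 ZNF2_ZNF3 Q1F degron–Nluc, then treated with compound titrations for 18 h at 37 °C. CAR surface levels were stained (20 min, 4 °C), read by flow cytometry and normalised to untreated cells. EC50 came from a four-parameter logistic fit; Ymin is the minimum % CAR remaining.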

[3] = Ymax is the % protein degraded, Jurkat cells expressing Q1F degron-tagged CD19 CAR, 18 hours

SMILES	DC50 [1] [nM]	DC50 [2] [nM]	Dmax [2, 3] [%]	Dmax ([2]; Jurkat, 18 h) [%]
N#Cc1ccc2c(c1)CN(C(=O)c1c(F)cc3c(c1F)CN(C1CCC(=O)NC1=O)C3=O)CC2 (stereo not drawn) [Compound 70, 2-[2-(2,6-dioxo-3-piperidyl)-4,6-difluoro-1-oxo-isoindoline-5-carbonyl]-3,4-dihydro-1H-isoquinoline-7-carbonitrile]	≥ 10000	15	–	95.5
O=C1CCC(N2Cc3c(cc(F)c(C(=O)N4CCc5cc(F)c(F)cc5C4)c3F)C2=O)C(=O)N1 (stereo not drawn) [Compound 72, 3-[5-(6,7-difluoro-3,4-dihydro-1H-isoquinoline-2-carbonyl)-4,6-difluoro-1-oxo-isoindolin-2-yl]piperidine-2,6-dione]	≥ 10000	21.2	92.5	–
CNc1ccc2c(n1)CN(C(=O)c1c(F)cc3c(c1F)CN(C1CCC(=O)NC1=O)C3=O)C2 (stereo not drawn) [Compound 73, 3-[4,6-difluoro-5-[2-(methylamino)-5,7-dihydropyrrolo[3,4-b]pyridine-6-carbonyl]-1-oxo-isoindolin-2-yl]piperidine-2,6-dione]	≥ 10000	3.11	–	95.3
O=C1CCC(N2Cc3c(cc(F)c(C(=O)Nc4nccn4C4CCC4)c3F)C2=O)C(=O)N1 (stereo not drawn) [Compound 74, N-(1-cyclobutyl-1H-imidazol-2-yl)-2-(2,6-dioxopiperidin-3-yl)-4,6-difluoro-1-oxoisoindoline-5-carboxamide]	≥ 10000	108	74.9	–
CN(CCN1CCC(c2cc3c(cc2F)C(=O)N(C2CCC(=O)NC2=O)C3)CC1)Cc1ccccc1 (stereo not drawn) [Compound 80, 3-(5-(1-(2-(benzyl(methyl)amino)ethyl)piperidin-4-yl)-6-fluoro-1-oxoisoindolin-2-yl)piperidine-2,6-dione]	≥ 10000	0.533	85.1	–

More lines, main results first:

DC50 [1] [nM]	DC50 [2] [nM]	Dmax [2, 3] [%]	SMILES	Dmax ([2]; Jurkat, 18 h) [%]
≥ 10000	23.7	95.7	O=C1CCC(N2Cc3c(cc(F)c(C(=O)N4CCc5c(Cl)cccc5C4)c3F)C2=O)C(=O)N1 (stereo not drawn) [Compound 71, 3-[5-(5-chloro-3,4-dihydro-1H-isoquinoline-2-carbonyl)-4,6-difluoro-1-oxo-isoindolin-2-yl]piperidine-2,6-dione]	–
≥ 10000	14.8	94.8	O=C1CCC(N2Cc3c(cc(F)c(C(=O)N4Cc5cccnc5C4)c3F)C2=O)C(=O)N1 (stereo not drawn) [Compound 77, 3-(5-(6,7-dihydro-5H-pyrrolo[3,4-b]pyridine-6-carbonyl)-4,6-difluoro-1-oxoisoindolin-2-yl)piperidine-2,6-dione]	–
≥ 10000	24.5	61.7	O=C1CCC(N2Cc3c(cc(F)c(CNC(=O)C4CCC(C(F)(F)F)CC4)c3F)C2=O)C(=O)N1 (stereo not drawn) [Compound 78, N-((2-(2,6-dioxopiperidin-3-yl)-4,6-difluoro-1-oxoisoindolin-5-yl)methyl)-4-(trifluoromethyl)cyclohexane-1-carboxamide]	–
≥ 10000	162	60	O=C1CCC(N2Cc3c(cc(F)c(CNCc4ccc(C(F)F)cc4)c3F)C2=O)C(=O)N1 (stereo not drawn) [Compound 79, 3-(5-(((4-(difluoromethyl)benzyl)amino)methyl)-4,6-difluoro-1-oxoisoindolin-2-yl)piperidine-2,6-dione]	–
≥ 10000	3.06	93	O=C1CCC(N2Cc3cc(C4CCN(Cc5ccc6ncsc6c5)CC4)c(F)cc3C2=O)C(=O)N1 (stereo not drawn) [Compound 81, 3-(5-(1-(benzo[d]thiazol-6-ylmethyl)piperidin-4-yl)-6-fluoro-1-oxoisoindolin-2-yl) piperidine-2,6-dione]	–
≥ 10000	1.72	88.2	O=C1CCC(N2Cc3cc(C4CCN(CC5CCCCC5)CC4)c(F)cc3C2=O)C(=O)N1 (stereo not drawn) [Compound 82, 3-(5-(1-(cyclohexylmethyl)piperidin-4-yl)-6-fluoro-1-oxoisoindolin-2-yl)piperidine-2,6-dione]	–
